Measured values: US10906878B2, “Kinase inhibitors for the treatment of disease” (Dana-Farber Cancer Institute, Inc., priority 2013, dated 2021)

Legend:
Ba/F3 TEL-ABL = Ba/F3 TEL-ABL (Homo sapiens, UniProt P00519); experiment: Inhibition of Ba/F3 TEL-ABL cell line; type: cell-based; details: read-out: IC50 (μM) Ba/F3 TEL-ABL
Description: (§1) Growth and inhibition of growth was assessed by MTS assay. This assay, a colorimetric method for determining the number of viable cells, is based on the bioreduction of 3-(4,5-dimethylthiazol-2-yl)-5-(3-carboxymethoxyphenyl)-2-(4-sulfophenyl)-2H-tetrazolium (MTS) by cells to a formazan product that is soluble in cell culture medium, can be detected spectrophotometrically and was performed according to the manufacturer's recommended conditions. Ba/F3 cells were exposed to treatment for 72 hours and the number of cells used per experiment determined empirically to assure linear growth kinetics over that time period. All experimental points were set up in six to twelve wells and all experiments were repeated at least three times. […] The curves were fitted using a non-linear regression model with a sigmoidal dose response.

Ba/F3 TYK2_E957D = Ba/F3 TYK2_E957D (Homo sapiens (Human), UniProt P29597, E957D); experiment: Inhibition of Ba/F3 TYK2_E957D cell line; type: cell-based; details: read-out: IC50 (μM) Ba/F3 TYK2_E957D
Description: as §1

Ba/F3 TEL-JAK1 = Ba/F3 TEL-JAK1 (Homo sapiens, UniProt P23458); experiment: Inhibition of Ba/F3 TEL-JAK1 cell line; type: cell-based; details: read-out: IC50 (μM) Ba/F3 TEL-JAK1
Sequence of Ba/F3 TEL-JAK1 (P23458 whole entry, looked up, change not shown): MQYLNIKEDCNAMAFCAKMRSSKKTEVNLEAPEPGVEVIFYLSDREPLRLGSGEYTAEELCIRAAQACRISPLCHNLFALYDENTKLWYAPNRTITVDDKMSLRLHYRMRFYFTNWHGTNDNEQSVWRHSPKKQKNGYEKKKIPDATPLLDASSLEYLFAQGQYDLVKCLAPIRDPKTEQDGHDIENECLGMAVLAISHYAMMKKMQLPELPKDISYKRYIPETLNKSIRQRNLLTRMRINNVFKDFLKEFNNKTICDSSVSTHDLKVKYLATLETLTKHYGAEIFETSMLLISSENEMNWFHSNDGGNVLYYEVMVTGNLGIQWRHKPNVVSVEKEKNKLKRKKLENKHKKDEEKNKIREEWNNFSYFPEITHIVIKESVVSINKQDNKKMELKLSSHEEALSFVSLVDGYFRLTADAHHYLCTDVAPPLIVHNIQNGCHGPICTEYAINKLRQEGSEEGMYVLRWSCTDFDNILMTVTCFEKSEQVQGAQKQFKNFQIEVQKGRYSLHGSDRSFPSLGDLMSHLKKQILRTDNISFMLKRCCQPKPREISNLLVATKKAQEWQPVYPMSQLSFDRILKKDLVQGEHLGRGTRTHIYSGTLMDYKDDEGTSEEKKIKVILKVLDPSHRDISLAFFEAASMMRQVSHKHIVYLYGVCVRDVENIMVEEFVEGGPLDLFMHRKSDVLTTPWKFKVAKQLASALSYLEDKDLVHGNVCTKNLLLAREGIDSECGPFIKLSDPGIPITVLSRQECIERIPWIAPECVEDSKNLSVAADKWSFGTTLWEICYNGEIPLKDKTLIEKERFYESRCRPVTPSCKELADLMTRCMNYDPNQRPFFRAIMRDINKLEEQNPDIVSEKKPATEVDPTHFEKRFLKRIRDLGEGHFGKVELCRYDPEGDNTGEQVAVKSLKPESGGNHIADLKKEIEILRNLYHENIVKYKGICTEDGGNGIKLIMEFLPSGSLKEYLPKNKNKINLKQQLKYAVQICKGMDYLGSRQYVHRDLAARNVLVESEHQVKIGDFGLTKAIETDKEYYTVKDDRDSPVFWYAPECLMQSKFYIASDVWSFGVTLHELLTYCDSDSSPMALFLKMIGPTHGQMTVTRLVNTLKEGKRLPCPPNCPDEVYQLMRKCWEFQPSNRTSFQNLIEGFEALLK
Description: as §1

Ba/F3 TEL-JAK2 = Ba/F3 TEL-JAK2 (Homo sapiens, UniProt O60674); experiment: Inhibition of Ba/F3 TEL-JAK2 cell line; type: cell-based; details: read-out: IC50 (μM) Ba/F3 TEL-JAK2
Sequence of Ba/F3 TEL-JAK2 (O60674 whole entry, looked up, change not shown): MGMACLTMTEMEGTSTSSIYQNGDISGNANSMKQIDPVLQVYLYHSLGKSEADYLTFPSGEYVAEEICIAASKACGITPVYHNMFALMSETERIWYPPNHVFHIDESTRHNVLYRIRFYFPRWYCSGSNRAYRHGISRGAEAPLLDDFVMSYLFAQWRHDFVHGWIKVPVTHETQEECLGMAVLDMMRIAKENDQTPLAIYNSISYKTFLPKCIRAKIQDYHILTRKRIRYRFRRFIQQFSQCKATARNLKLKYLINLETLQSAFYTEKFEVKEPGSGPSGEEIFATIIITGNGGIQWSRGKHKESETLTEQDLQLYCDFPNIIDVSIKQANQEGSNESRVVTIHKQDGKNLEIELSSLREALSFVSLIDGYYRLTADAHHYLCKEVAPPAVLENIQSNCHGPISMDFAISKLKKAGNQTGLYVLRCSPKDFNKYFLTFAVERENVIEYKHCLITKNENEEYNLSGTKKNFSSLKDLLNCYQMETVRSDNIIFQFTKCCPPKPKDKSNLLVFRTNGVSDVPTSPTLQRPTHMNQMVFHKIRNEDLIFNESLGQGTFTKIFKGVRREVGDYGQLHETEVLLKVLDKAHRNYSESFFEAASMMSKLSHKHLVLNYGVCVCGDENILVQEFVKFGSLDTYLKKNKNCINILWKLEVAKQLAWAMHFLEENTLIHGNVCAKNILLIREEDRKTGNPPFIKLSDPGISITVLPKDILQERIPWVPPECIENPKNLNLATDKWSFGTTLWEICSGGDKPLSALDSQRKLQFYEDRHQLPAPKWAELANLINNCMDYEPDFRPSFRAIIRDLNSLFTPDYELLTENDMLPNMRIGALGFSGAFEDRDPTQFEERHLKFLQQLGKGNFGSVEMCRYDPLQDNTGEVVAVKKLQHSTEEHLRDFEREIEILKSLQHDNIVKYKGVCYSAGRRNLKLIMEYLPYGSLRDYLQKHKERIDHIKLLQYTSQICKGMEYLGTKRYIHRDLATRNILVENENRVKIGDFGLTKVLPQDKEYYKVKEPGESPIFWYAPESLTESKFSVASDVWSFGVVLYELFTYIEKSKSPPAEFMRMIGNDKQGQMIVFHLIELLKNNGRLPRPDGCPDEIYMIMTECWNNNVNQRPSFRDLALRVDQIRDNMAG
Description: as §1

Ba/F3 TEL-JAK3 = Ba/F3 TEL-JAK3 (Homo sapiens, UniProt P52333); experiment: Inhibition of Ba/F3 TEL-JAK3 cell line; type: cell-based; details: read-out: IC50 (μM) Ba/F3 TEL-JAK3
Sequence of Ba/F3 TEL-JAK3 (P52333 whole entry, looked up, change not shown): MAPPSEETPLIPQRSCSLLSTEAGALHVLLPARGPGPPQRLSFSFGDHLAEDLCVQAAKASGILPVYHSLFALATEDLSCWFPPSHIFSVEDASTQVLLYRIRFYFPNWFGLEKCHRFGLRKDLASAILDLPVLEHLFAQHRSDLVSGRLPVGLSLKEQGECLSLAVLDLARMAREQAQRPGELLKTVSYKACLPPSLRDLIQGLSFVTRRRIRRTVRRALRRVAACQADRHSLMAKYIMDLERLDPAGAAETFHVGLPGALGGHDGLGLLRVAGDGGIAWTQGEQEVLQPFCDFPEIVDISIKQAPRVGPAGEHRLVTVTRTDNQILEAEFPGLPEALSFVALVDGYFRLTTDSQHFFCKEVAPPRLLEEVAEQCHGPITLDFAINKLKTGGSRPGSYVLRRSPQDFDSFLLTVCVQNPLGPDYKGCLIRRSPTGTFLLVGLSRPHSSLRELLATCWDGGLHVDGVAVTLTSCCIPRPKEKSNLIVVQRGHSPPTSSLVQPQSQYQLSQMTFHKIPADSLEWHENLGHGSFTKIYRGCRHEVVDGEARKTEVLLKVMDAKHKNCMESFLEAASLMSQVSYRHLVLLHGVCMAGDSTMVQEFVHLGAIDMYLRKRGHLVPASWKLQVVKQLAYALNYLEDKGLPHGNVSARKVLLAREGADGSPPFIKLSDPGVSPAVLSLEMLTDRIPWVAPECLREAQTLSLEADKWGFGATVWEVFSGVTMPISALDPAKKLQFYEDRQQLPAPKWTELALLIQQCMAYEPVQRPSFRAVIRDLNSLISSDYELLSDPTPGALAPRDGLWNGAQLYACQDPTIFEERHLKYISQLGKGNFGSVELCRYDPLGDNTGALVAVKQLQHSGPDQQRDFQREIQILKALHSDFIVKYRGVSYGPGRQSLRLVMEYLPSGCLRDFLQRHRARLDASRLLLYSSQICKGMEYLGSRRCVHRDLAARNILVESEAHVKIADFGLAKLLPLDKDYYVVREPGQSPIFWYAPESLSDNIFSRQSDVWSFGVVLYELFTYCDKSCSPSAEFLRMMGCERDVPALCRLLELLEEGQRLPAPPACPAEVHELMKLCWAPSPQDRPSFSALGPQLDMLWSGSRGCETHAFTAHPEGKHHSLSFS
Description: as §1

BLK = BLK (Homo sapiens (Human), UniProt P51451); experiment: Kinase inhibition BLK; type: biochemical
Sequence of BLK (P51451 whole entry): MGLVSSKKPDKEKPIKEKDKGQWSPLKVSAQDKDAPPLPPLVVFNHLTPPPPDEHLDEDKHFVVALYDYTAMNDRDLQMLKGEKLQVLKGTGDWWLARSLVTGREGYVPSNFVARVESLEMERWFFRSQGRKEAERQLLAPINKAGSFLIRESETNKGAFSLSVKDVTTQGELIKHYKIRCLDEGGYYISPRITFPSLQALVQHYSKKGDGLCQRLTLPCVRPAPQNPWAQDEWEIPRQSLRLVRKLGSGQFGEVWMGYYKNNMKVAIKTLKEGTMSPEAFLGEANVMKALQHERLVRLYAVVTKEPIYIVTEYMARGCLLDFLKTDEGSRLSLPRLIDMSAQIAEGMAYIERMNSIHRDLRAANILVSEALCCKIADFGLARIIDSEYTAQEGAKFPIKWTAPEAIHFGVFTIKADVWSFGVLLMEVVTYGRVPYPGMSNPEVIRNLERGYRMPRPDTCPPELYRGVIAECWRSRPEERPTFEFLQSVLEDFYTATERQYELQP

ITK = ITK (Homo sapiens (Human), UniProt Q08881); experiment: Kinase inhibition ITK; type: biochemical
TEC = TEC (Homo sapiens (Human), UniProt P42680); experiment: Kinase inhibition TEC; type: biochemical
TXK = TXK (Homo sapiens (Human), UniProt P42681); experiment: Kinase inhibition TXK; type: biochemical

Sequence of Ba/F3 TEL-ABL (P00519 whole entry, looked up, change not shown): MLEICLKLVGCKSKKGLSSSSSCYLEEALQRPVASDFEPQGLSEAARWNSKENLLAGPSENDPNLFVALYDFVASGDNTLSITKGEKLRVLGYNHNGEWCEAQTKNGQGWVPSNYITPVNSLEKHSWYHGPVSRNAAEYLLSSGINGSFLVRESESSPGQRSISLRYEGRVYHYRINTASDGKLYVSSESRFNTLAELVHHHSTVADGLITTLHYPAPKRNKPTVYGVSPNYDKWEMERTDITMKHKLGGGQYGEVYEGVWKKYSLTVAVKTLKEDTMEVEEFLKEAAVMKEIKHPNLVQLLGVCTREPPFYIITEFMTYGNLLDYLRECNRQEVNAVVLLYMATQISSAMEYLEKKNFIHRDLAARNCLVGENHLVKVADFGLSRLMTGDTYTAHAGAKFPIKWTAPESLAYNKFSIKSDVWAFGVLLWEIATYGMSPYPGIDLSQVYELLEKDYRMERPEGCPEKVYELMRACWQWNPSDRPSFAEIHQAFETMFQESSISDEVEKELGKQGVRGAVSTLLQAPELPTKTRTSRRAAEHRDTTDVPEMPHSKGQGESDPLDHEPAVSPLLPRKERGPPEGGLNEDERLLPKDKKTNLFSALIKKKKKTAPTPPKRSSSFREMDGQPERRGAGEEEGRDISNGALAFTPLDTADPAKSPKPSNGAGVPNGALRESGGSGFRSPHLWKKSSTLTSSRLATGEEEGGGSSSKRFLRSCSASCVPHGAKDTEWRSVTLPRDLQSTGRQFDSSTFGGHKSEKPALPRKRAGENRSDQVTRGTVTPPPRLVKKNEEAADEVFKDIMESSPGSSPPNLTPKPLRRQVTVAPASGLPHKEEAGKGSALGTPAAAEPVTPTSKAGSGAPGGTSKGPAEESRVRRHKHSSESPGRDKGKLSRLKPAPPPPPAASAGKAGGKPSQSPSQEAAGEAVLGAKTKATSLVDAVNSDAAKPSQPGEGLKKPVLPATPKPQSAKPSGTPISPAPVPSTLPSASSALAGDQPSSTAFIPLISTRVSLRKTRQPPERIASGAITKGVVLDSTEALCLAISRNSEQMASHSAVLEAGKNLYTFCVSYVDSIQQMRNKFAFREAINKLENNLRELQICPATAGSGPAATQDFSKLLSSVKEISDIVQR

| SMILES | IC50 (Ba/F3 TEL-ABL) [µM] | IC50 (Ba/F3 TYK2_E957D) [µM] | IC50 (Ba/F3 TEL-JAK1) [µM] | IC50 (Ba/F3 TEL-JAK2) [µM] | IC50 (Ba/F3 TEL-JAK3) [µM] | Kinase inhibition (% control, 1000 nM compound) BLK (BLK) [% control] | Kinase inhibition (% control, 1000 nM compound) ITK (ITK) [% control] | Kinase inhibition (% control, 1000 nM compound) TEC (TEC) [% control] | Kinase inhibition (% control, 1000 nM compound) TXK (TXK) [% control] |
| --- | --- | --- | --- | --- | --- | --- | --- | --- | --- |
| C=CC(=O)Nc1cccc(N(C(=O)OCc2ccccc2)c2ccnc(Nc3cnn(CCN4CCOCC4)c3)n2)c1 [Compound 85A] | 16.1 | 4.37 | 8.86 | 18.3 | 0.189 | – | – | – | – |
| C=CC(=O)Nc1cccc(N(C(=O)OCc2ccccc2)c2ccnc(Nc3cnn(C)c3)n2)c1 [Compound 83A] | 16.7 | 2.95 | 9 | 17.5 | 0.107 | 0.4 | 66 | 5.7 | 3.8 |
| C=CC(=O)Nc1cccc(N(C(=O)OCc2ccccc2)c2ccnc(Nc3cnn(C4CCOCC4)c3)n2)c1 [Compound 84A] | 11.3 | 4.17 | 7.41 | 18.1 | 0.139 | – | – | – | – |
